Source: US11713335B2, “Aminocoumarin compounds and methods of their use” (President and Fellows of Harvard College, priority 2018, dated 2023)
Converted amounts (≈) assume the structure as drawn. Where two headings read alike, the source gives them in different places.

How the values were obtained:
Type in all cases: cell-based
[1] = tested on: S. aureus RN4220; test: Minimal inhibitory concentration, S. aureus RN4220; settings: read-out: MIC (μM) S. aureus RN4220
Method: (§1) General Procedure for Determination of Minimal Inhibitory Concentrations
(§2) Overnight cultures (5 mL) of bacterial strains were grown in LB media or TSA media (for S. aureus) at 37° C. and with shaking at 220 rpm until saturation. The overnight culture was diluted serially 1:100 (50 μL in 5 mL sterile media) and then 1:100 (250 μL in 25 mL sterile media). The 25 mL of diluted culture was then dispensed to a sterile 96 well plate (Corning #3370). 198 μL of culture were dispensed into row A and 100 μL of this culture were dispensed into rows B-H. Aminocoumarin compound (DMSO stock) were added to the first row and then the row was mixed by pipetting. 100 μL of culture from row A were transferred to row B and the serial dilution continued until the final 100 μL from row H were discarded. The plate was incubated without shaking in a 37° C. for 16 hours and then read by visible light spectrophotometer (Molecular Devices) at 600 nm. The minimal inhibitory concentration (MIC) was determined as the lowest concentration of compound concentration that inhibited the growth of bacteria.
(§3) The compounds of the invention were assessed for activities against the pathogens S. aureus RN4220 and MW2, E. cloacae 13047, A. baumannii 19606, K. pneumoniae 700721, E. coli MC4100, 25922. All activities are reported in micromolar (uM) and are 16 hour minimal inhibitory concentrations at 37° C. The assay is detailed in Example 11 and is titled “General Procedure for Determination of Minimal Inhibitory Concentrations.”

[2] = tested on: S. aureus MW2; test: Minimal inhibitory concentration, S. aureus MW2; settings: read-out: MIC (μM) S. aureus MW2 (MRSA)
Method: as §1, §2, §3

[3] = tested on: E. cloacae 13047; test: Minimal inhibitory concentration, E. cloacae 13047; settings: read-out: MIC (μM) E. cloacae 13047
Method: as §1, §2, §3

[4] = tested on: A. baumannii 19606; test: Minimal inhibitory concentration, A. baumannii 19606; settings: read-out: MIC (μM) A. baumannii 19606
Method: as §1, §2, §3

[5] = tested on: K. pneumoniae 700721; test: Minimal inhibitory concentration, K. pneumoniae 700721; settings: read-out: MIC (μM) K. pneumoniae 700721
Method: as §1, §2, §3

[6] = tested on: E. coli MC4100; test: Minimal inhibitory concentration, E. coli MC4100; settings: read-out: MIC (μM) E. coli MC4100 ara+
Method: as §1, §2, §3

[7] = tested on: E. coli 25922; test: Minimal inhibitory concentration, E. coli 25922; settings: read-out: MIC (μM) E. coli 25922
Method: as §1, §2, §3

[8] = Staphylococcus aureus, RN4220, 16 h, 16 hour minimal inhibitory concentration at 37° C.
[9] = Staphylococcus aureus, MRSA, 16 h
[10] = Enterobacter cloacae, 13047, 16 hour minimal inhibitory concentration at 37° C.
[11] = Klebsiella pneumoniae, 700721, 16 hour minimal inhibitory concentration at 37° C.
[12] = Staphylococcus aureus, MRSA, 16 h, 16 hour minimal inhibitory concentration at 37° C.
[13] = Acinetobacter baumannii, 19606, 16 h, 16 hour minimal inhibitory concentration at 37° C.
[14] = Escherichia coli, MC4100, 16 h, 16 hour minimal inhibitory concentration at 37° C.
[15] = Escherichia coli, 25922, 16 h, 16 hour minimal inhibitory concentration at 37° C.
[16] = 16 hour minimal inhibitory concentration at 37° C.

Compound | MIC [1, 8] [µM] | MIC [3, 10] [µM] | MIC [5, 11] [µM] | MIC [2, 12] [µM] | MIC [4, 13] [µM] | MIC [6, 14] [µM] | MIC [7, 15] [µM] | also measured
CO[C@@H]1[C@@H](OC(N)=O)[C@@H](O)[C@H](Oc2ccc3c(OCCO)c(NC(=O)c4ccc(O)c(CC=C(C)C)c4)c(=O)oc3c2C)OC1(C)C [Compound 215] | 38 (≈ 25 µg/mL) | > 100 | > 100 |  |  |  |  | MIC [2, 9]: 19 µM (≈ 12.5 µg/mL); MIC ([4]; Acinetobacter baumannii, 19606, 16 hour minimal inhibitory concentration at 37° C.): > 50 µM; MIC ([6]; Escherichia coli, MC4100, 16 hour minimal inhibitory concentration at 37° C.): > 200 µM; MIC ([7]; Escherichia coli, 25922, 16 hour minimal inhibitory concentration at 37° C.): > 200 µM
CO[C@@H]1[C@@H](OC(N)=O)[C@@H](O)[C@H](Oc2ccc3c(O)c(NC(=O)c4cccc(Oc5ccccc5C)c4)c(=O)oc3c2C)OC1(C)C [Compound 220] | 10 (≈ 6.35 µg/mL) | > 100 | > 100 | 10 (≈ 6.35 µg/mL) | > 50 | 158 (≈ 100 µg/mL) | 160 (≈ 102 µg/mL) | 
CO[C@@H]1[C@@H](OC(N)=O)[C@@H](O)[C@H](Oc2ccc3c(O)c(NC(=O)c4cccc(Oc5ccc(Cl)cc5)n4)c(=O)oc3c2C)OC1(C)C [Compound 238] | 10 (≈ 6.56 µg/mL) | > 100 | > 100 | 10 (≈ 6.56 µg/mL) | > 50 | 152 (≈ 99.7 µg/mL) | > 200 | 
CO[C@@H]1[C@@H](O)[C@@H](OC(=O)NC2CCCC2)[C@H](Oc2ccc3c(O)c(NC(=O)c4ccc(O)c(CC=C(C)C)c4)c(=O)oc3c2C)OC1(C)C [Compound 107] |  |  |  |  |  |  |  | MIC [1, 16]: 73 µM (≈ 49.7 µg/mL); MIC [2, 16]: 73 µM (≈ 49.7 µg/mL); MIC [3, 16]: >100 µM; MIC [4, 16]: 9 µM (≈ 6.13 µg/mL); MIC [5, 16]: >100 µM; MIC [6, 16]: >200 µM; MIC [7, 16]: >200 µM
C#CCOc1cccc(C(=O)Nc2c(O)c3ccc(O[C@@H]4OC(C)(C)[C@H](OC)[C@@H](OC(N)=O)[C@H]4O)c(C)c3oc2=O)c1 [Compound 230] | 86 (≈ 50.1 µg/mL) | > 100 | > 100 | 86 (≈ 50.1 µg/mL) | > 50 | 86 (≈ 50.1 µg/mL) | 172 (≈ 100 µg/mL) | 
CCNC(=O)O[C@H]1[C@H](Oc2ccc3c(O)c(NC(=O)c4ccc(O)c(CC=C(C)C)c4)c(=O)oc3c2C)OC(C)(C)[C@H](OC)[C@H]1O [Compound 104] |  |  |  |  |  |  |  | MIC [1, 16]: 2 µM (≈ 1.28 µg/mL); MIC [2, 16]: 2 µM (≈ 1.28 µg/mL); MIC [3, 16]: >100 µM; MIC [4, 16]: 10 µM (≈ 6.41 µg/mL); MIC [5, 16]: >100 µM; MIC [6, 16]: >200 µM; MIC [7, 16]: 156 µM (≈ 99.9 µg/mL)
CO[C@@H]1[C@@H](OC(N)=O)[C@@H](O)[C@H](Oc2ccc3c(O)c(NC(=O)c4cccc(-c5ccccc5Br)c4)c(=O)oc3c2C)OC1(C)C [Compound 235] | 9 (≈ 6.15 µg/mL) | > 100 | > 100 | 5 (≈ 3.42 µg/mL) | > 50 | 18 (≈ 12.3 µg/mL) | 18 (≈ 12.3 µg/mL) | 
CO[C@@H]1[C@@H](OC(N)=O)[C@@H](O)[C@H](Oc2ccc3c(O)c(NC(=O)c4ccccc4Br)c(=O)oc3c2C)OC1(C)C [Compound 231] | > 100 | > 100 | > 100 | > 100 | > 50 | > 200 | > 200 | 
CO[C@@H]1[C@@H](OC(N)=O)[C@@H](O)[C@H](Oc2ccc3c(O)c(NC(=O)c4cccc(-c5ccc(Cl)c(Cl)c5)c4)c(=O)oc3c2C)OC1(C)C [Compound 222] | 0.46 (≈ 0.31 µg/mL) | > 100 | > 100 | 0.23 (≈ 0.155 µg/mL) | 9 (≈ 6.06 µg/mL) | 37 (≈ 24.9 µg/mL) | 37 (≈ 24.9 µg/mL) | 
CO[C@@H]1[C@@H](OC(N)=O)[C@@H](O)[C@H](Oc2ccc3c(O)c(NC(=O)c4ccc(CN)cc4)c(=O)oc3c2C)OC1(C)C [Compound 207] | > 100 | > 100 | > 100 | > 100 | > 50 | > 200 | > 200 | 
CO[C@@H]1[C@@H](OC(N)=O)[C@@H](O)[C@H](Oc2ccc3c(O)c(NC(=O)c4cccc(Oc5cccc(C(F)(F)F)c5)c4)c(=O)oc3c2C)OC1(C)C [Compound 241] | 9.08 (≈ 6.25 µg/mL) | > 100 | > 100 | 9.08 (≈ 6.25 µg/mL) | > 50 | 155 (≈ 107 µg/mL) | 145 (≈ 99.8 µg/mL) | 
CO[C@@H]1[C@@H](OC(N)=O)[C@@H](O)[C@H](Oc2ccc3c(O)c(NC(=O)c4ccc([N+](=O)[O-])c(Oc5ccccc5)c4)c(=O)oc3c2C)OC1(C)C [Compound 253] | 38 (≈ 25.3 µg/mL) | > 100 | > 100 | 38 (≈ 25.3 µg/mL) | > 50 | 75 (≈ 49.9 µg/mL) | 75 (≈ 49.9 µg/mL) | 
CO[C@@H]1[C@@H](OC(N)=O)[C@@H](O)[C@H](Oc2ccc3c(O)c(NC(=O)c4cccc(Oc5ccc(Cl)cc5)c4)c(=O)oc3c2C)OC1(C)C [Compound 243] | 10 (≈ 6.55 µg/mL) | > 100 | > 100 | 10 (≈ 6.55 µg/mL) | > 50 | 4.8 (≈ 3.14 µg/mL) | 38 (≈ 24.9 µg/mL) | 
CO[C@@H]1[C@@H](O)[C@@H](OC(=O)c2cc(C)c(C)[nH]2)[C@H](Oc2ccc3c(O)c(NC(=O)c4ccc(O)c(CC=C(C)C)c4)c(=O)oc3c2C)OC1(C)C [Compound 214] |  |  |  |  |  |  |  | MIC ([1]; Staphylococcus aureus, RN4220, 16 h): 5 µM (≈ 3.45 µg/mL); MIC [2, 9]: 5 µM (≈ 3.45 µg/mL); MIC ([3]; Enterobacter cloacae, 13047, 16 h): > 100 µM; MIC ([4]; Acinetobacter baumannii, 19606, 16 h): > 50 µM; MIC ([5]; Klebsiella pneumoniae, 700721, 16 h): > 100 µM; MIC ([6]; Escherichia coli, MC4100, 16 h): > 200 µM; MIC ([7]; Escherichia coli, 25922, 16 h): > 200 µM
C#Cc1cccc(C(=O)Nc2c(O)c3ccc(O[C@@H]4OC(C)(C)[C@H](OC)[C@@H](OC(N)=O)[C@H]4O)c(C)c3oc2=O)c1 [Compound 229] | 90 (≈ 49.7 µg/mL) | > 100 | > 100 | 90 (≈ 49.7 µg/mL) | > 50 | > 200 | > 200 | 
